Laboratory results from US20170226072A1, “1,4-Disubstituted Piperidines, 1,4-Disubstituted Piperazines, 1,4-Disubstituted Diazepines, and 1,3-Disubstituted Pyrrolidine Compounds” (University of Kentucky Research Foundation, priority 2013, published 2017).
Several values for one entry are separate records, joined by “and”; a condition that tells them apart may be missing. Equal values may be shown once.

Legend:
VMAT2 [1] = biological target: T1, VMAT2 (Rattus norvegicus, UniProt Q01827); assay: [3H]Dopamine ([3H]DA) uptake assay, vesicular preparation; type: biochemical
T1 construct: conducted using isolated synaptic vesicle preparations; from tissue; host or cells: rat striatum, isolated synaptic vesicles
T1 sequence (Q01827 whole entry): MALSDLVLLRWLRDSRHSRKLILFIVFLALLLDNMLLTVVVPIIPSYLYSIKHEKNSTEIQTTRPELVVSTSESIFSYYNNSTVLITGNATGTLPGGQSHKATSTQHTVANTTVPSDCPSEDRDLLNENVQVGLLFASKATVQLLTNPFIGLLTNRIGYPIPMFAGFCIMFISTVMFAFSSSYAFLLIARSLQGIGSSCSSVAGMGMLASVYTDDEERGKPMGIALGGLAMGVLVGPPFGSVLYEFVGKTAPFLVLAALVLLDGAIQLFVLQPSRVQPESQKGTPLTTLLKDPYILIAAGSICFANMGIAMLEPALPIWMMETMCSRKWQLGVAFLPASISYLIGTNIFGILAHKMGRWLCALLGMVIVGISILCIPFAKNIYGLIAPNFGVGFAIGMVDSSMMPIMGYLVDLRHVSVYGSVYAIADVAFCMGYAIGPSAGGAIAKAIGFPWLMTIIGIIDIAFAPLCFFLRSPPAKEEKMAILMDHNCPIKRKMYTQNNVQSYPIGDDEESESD
Protocol: [^3H]Dopamine ([^3H]DA) Uptake Assay, Vesicular Preparation
Homogenates were centrifuged (2,000 g for 10 min at 4° C.), and then the supernatants were centrifuged (10,000 g for 30 min at 4° C.). Pellets were resuspended in 2 ml of 0.32 M sucrose solution and subjected to osmotic shock by adding 7 ml of ice-cold MilliQ water to the preparation. After 1 min, osmolarity was restored by adding 900 μl of 0.25 M HEPES buffer and 900 μl of 1.0 M potassium tartrate solution. Samples were centrifuged (20,000 g for 20 min at 4° C.), and the supernatants were centrifuged (55,000 g for 1 hr at 4° C.), followed by addition of 100 μl of 10 mM MgSO4, 100 μl of 0.25 M HEPES and 100 μl of 1.0 M potassium tartrate solution prior to the final centrifugation (100,000 g for 45 min at 4° C.). Final pellets were resuspended in 2.4 ml of assay buffer (25 mM HEPES, 100 mM potassium tartrate, 50 μM EGTA, 100 μM EDTA, 1.7 mM ascorbic acid, 2 mM ATP-Mg^2+, pH 7.4). Aliquots of the vesicular suspension (100 μl) were added to tubes containing assay buffer, various concentrations of compound (0.1 nM-10 mM) and 0.1 μM [^3H]DA in a final volume of 500 and incubated at 37° C. for 8 min. […] Reactions were terminated by filtration, and radioactivity retained by the filters was determined by liquid scintillation spectrometry (Tri-Carb 2100TR liquid scintillation analyzer; PerkinElmer Life and Analytical Sciences, Boston, Mass.).

VMAT2 [2] = biological target: T1, VMAT2; assay: [3H]Dihydrotetrabenazine ([3H]DTBZ) binding assay, vesicular preparation; settings: rat brain synaptic vesicles, 3 nM [3H]DTBZ; read-out: Inhibition of [3H]DTBZ binding (Ki) VMAT2
Protocol: [^3H]Dihydrotetrabenazine ([^3H]DTBZ) Binding Assay, Vesicular Preparation
The resulting supernatant (S1) was then centrifuged at 22,000 g for 10 min at 4° C. The synaptosomal pellets (P2) were homogenized in 18 mL of ice-cold Milli-Q water and exposed for 5 min for lysing synaptosomes. Osmolarity was restored by addition of 2 mL of 25 mM HEPES with 100 mM dipotassium tartrate (pH 7.5). Samples were centrifuged at 20,000 g for 20 min at 4° C. to remove lysed synaptosomal membranes. MgSO4 (1 mM) was added to the supernatant (S3), and was centrifuged at 100,000 g for 45 min at 4° C. […] Aliquot parts (100 μL) of suspension of vesicle membrane protein were incubated in assay buffer (25 mM HEPES, 100 mM dipotassium tartrate, 5 mM MgSO4, 0.1 mM EDTA and 0.05 mM EGTA, pH 7.5, at 25° C.) in the presence of 3 nM [^3H]DTBZ and at least 7 concentrations (1 nM-1 mM) of compound for 1 hr at room temperature. Nonspecific binding was determined in the presence of 20 μM tetrabenazine, a standard compound. Assays were performed in duplicate using a 96-well plate format. Reactions were terminated by filtration of samples on a Unifilter-96 GF/B filter plates (presoaked in 0.5% polyethylenimine), using a FilterMate harvester (Packard BioScience Co., Meriden, Conn.).
After washing 5 times with 350 μL of the ice-cold wash buffer (25 mM HEPES, 100 mM dipotassium tartrate, 5 mM MgSO4 and 10 mM NaCl, pH 7.5), filter plates were dried, sealed and each well filled with 40 μL Packard's MicroScint 20 cocktail. Bound [^3H]DTBZ was measured using a Packard TopCount NXT scintillation counter with a Packard Windows NT based operating system.

hERG channel = biological target: T2, hERG channel (Homo sapiens, UniProt Q12809); assay: [3H]Dofetilide binding assay, HEK-293 cell membrane preparation; settings: HEK-293 cell membranes expressing hERG, 5 nM [3H]dofetilide; read-out: hERG [3H]Dofetilide Binding Inhibition Mean ± SEM (IC50)
T2 construct: expressed in transfected cells
T2 sequence (Q12809 whole entry): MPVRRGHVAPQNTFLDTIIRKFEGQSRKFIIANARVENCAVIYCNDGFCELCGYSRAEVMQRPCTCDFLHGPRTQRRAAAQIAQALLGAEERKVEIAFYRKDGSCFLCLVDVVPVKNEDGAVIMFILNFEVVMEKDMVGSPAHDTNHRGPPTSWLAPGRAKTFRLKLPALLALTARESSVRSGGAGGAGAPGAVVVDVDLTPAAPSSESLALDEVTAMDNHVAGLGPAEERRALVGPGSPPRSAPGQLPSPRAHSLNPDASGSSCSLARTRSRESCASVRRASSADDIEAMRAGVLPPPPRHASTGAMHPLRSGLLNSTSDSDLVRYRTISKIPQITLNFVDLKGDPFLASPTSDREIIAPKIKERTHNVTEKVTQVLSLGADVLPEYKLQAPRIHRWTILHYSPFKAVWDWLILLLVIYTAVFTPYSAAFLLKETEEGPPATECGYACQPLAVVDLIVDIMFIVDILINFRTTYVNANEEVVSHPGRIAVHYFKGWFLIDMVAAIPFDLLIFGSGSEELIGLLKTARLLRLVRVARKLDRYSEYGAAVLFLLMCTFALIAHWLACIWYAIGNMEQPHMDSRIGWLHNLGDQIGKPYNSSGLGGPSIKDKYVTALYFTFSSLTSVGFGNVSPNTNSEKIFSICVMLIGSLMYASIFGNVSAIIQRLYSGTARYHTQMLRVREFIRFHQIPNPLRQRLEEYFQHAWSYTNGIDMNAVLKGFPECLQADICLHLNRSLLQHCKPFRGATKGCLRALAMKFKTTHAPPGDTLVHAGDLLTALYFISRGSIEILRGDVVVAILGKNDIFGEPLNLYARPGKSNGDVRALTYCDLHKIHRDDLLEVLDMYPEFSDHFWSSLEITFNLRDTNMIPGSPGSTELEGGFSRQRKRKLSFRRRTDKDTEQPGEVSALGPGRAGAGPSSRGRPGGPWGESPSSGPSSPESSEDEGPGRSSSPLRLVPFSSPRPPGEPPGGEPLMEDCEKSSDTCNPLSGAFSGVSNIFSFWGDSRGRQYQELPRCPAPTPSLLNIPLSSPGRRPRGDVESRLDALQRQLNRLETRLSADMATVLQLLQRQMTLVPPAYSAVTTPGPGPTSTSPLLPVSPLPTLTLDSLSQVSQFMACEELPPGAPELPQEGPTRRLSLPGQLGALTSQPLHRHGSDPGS
Protocol: [^3H]Dofetilide Binding Assay, HEK-293 Cell Membrane Preparation
[^3H]Dofetilide binding assays were conducted using commercially available HEK-293 cell membranes which stably express the hERG channel. Membranes were suspended in assay buffer (50 mM Tris, 10 mM KCl, 1 mM MgCl2, pH 7.4) prior to the experiment. Assays were performed in duplicate in a total volume of 250 μL. Aliquots of the HEK-293 cell membrane suspension which contained 5 μg membrane protein were added to tubes containing assay buffer, 5 nM [^3H]dofetilide and a range of concentrations of analog (10 nM-100 μM). Nonspecific binding was determined in the presence of amitriptyline (1 mM). Samples were incubated for 1 hr. at 24° C., followed by rapid filtration. Radioactivity retained by the filters was determined by liquid scintillation spectrometry as described above for the [^3H]DA uptake assay. The affinity for the [^3H]dofetilide binding site on the hERG channel expressed in the HEK-293 cellular membrane was determined from the analog concentration response curves.

[3] = rat striatal synaptic vesicles, 0.1 μM [3H]DA, read-out: [3H]DA Uptake (Ki) VMAT2

| SMILES | Ki (VMAT2 [1]; [3]) | Ki (VMAT2 [2]) | IC50 (hERG channel) | Ki (VMAT2 [1]; synaptic vesicle preparations, summary of Table 1, read-out: inhibition of [3H]DA uptake, Ki) |
| --- | --- | --- | --- | --- |
| COc1ccc(CCN2CCC(CCc3ccc(F)cc3F)CC2)cc1 [Compound 33] | 0.07 ± 0.0051 µM | 1.3 ± 0.17 µM | 1.07 ± 0.152 µM |  |
| COc1ccc(CCN2CCC(CCc3ccccc3)CC2)cc1 [Compound 4] | 0.046 ± 0.0037 µM | 1.62 ± 0.19 µM | 0.622 ± 0.215 µM |  |
| c1ccc(CCN2CCCN(CCc3ccccc3)CC2)cc1 [Compound 65] | 0.19 ± 0.017 µM | 3.17 ± 0.55 µM |  |  |
| c1ccc(CCC2CCN(Cc3ccccc3)CC2)cc1 [Compound 48] | 0.19 ± 0.063 µM | 21.7 ± 2.08 µM |  |  |
| COc1ccc(CCC2CCN(CCc3ccccc3OC)CC2)c(F)c1 [Compound 37] | 0.076 ± 0.01 µM | 0.33 ± 0.018 µM | 2.87 ± 0.76 µM |  |
| COc1ccc(CCN2CCC(CCc3ccccc3OC)CC2)cc1 [Compound 27] | 0.043 ± 0.0028 µM | 0.5 ± 0.1 µM | 0.479 ± 0.109 µM |  |
| Fc1ccc(CCN2CCC(CCc3ccccc3)CC2)cc1 [Compound 11] | 0.032 ± 0.0038 µM | 1.82 ± 0.079 µM | 0.353 ± 0.036 µM |  |
| COc1ccc(CCN2CCC(CCc3cc(F)cc(F)c3)CC2)cc1 [Compound 45] | 0.12 ± 0.028 µM | 2.03 ± 0.13 µM |  |  |
| COc1ccccc1CN1CCC(CCc2ccccc2)CC1 [Compound 49] | 0.07 ± 0.0075 µM | 9.36 ± 1.32 µM | 0.568 ± 0.122 µM |  |
| COc1ccc(CCC2CCN(CCc3ccc(F)cc3)CC2)cc1 [Compound 25] | 0.06 ± 0.005 µM | 0.47 ± 0.067 µM | 1.42 ± 0.384 µM |  |
| COc1cccc(CCC2CCN(CCc3ccccc3OC)CC2)c1 [Compound 15] | 0.04 ± 0.0075 µM | 0.32 ± 0.055 µM | 0.79 ± 0.0641 µM |  |
| COc1ccc(CCN2CCC(CCc3cccc(OC)c3)CC2)cc1 [Compound 17] | 0.13 ± 0.023 µM | 0.45 ± 0.13 µM | 0.6 ± 0.0878 µM |  |
| Fc1ccc(CCN2CCCN(CCc3ccc(F)cc3)CC2)cc1 [Compound 70] | 0.085 ± 0.0052 µM | 5.05 ± 0.77 µM | 0.057 ± 0.0027 µM |  |
| Clc1ccccc1CCN1CCC(CCc2ccccc2)CC1 [Compound 10] | 0.047 ± 0.0063 µM | 0.38 ± 0.0058 µM | 0.666 ± 0.0265 µM |  |
| COc1ccccc1CCN1CCC(CCc2ccc(F)cc2F)CC1 [Compound 31] | 0.041 ± 0.012 µM | 0.35 ± 0.048 µM | 0.317 ± 0.0248 µM |  |
| COc1ccc(CCC2CCN(CCc3ccc(OC)cc3)CC2)cc1 [Compound 23] | 0.16 ± 0.012 µM | 2.47 ± 0.27 µM |  |  |
| Fc1ccc(CCN2CCC(CCc3cc(F)cc(F)c3)CC2)cc1 [Compound 47] | 0.068 ± 0.016 µM | 1.43 ± 0.28 µM | 0.44 ± 0.0412 µM |  |
| COc1cccc(CN2CCC(CCc3ccccc3)CC2)c1 [Compound 50] | 0.19 ± 0.02 µM | 12.7 ± 4.28 µM |  |  |
| COc1cccc(CCC2CCN(CCc3ccc(F)cc3)CC2)c1 [Compound 19] | 0.069 ± 0.004 µM | 0.96 ± 0.047 µM | 0.409 ± 0.0429 µM |  |
| COc1cccc(CCN2CCC(Cc3ccccc3)CC2)c1 [Compound 6] | 0.077 ± 0.0098 µM | 1.53 ± 0.1 µM | 0.442 ± 0.221 µM |  |
| COc1ccc(CCC2CCN(CCc3ccccc3OC)CC2)cc1 [Compound 21] | 0.083 ± 0.009 µM | 0.42 ± 0.019 µM | 0.323 ± 0.0964 µM |  |
| COc1cccc(CCN2CCCN(CCc3cccc(OC)c3)CC2)c1 [Compound 67] | 0.1 ± 0.01 µM | 2.24 ± 0.53 µM | 1.12 ± 0.0857 µM |  |
| Fc1ccc(CCN2CCC(CCc3ccc(F)cc3F)CC2)cc1 [Compound 35] | 0.043 ± 0.014 µM | 1.45 ± 0.24 µM | 0.201 ± 0.0327 µM |  |
| Clc1ccccc1CN1CCC(CCc2ccccc2)CC1 [Compound 52] | 0.27 ± 0.042 µM | 44.5 ± 17.8 µM |  |  |
| Fc1ccc(CCC2CCN(CCc3ccccc3Cl)CC2)c(F)c1 [Compound 34] | 0.11 ± 0.019 µM | 0.24 ± 0.038 µM |  |  |

| SMILES | Ki (VMAT2 [1]; [3]) | Ki (VMAT2 [2]) | IC50 (hERG channel) | Ki (VMAT2 [1]; synaptic vesicle preparations, summary of Table 1, read-out: inhibition of [3H]DA uptake, Ki) |
| --- | --- | --- | --- | --- |
| COc1ccc(CCC2CCN(CCc3ccccc3)CC2)cc1 [Compound 20] | 0.11 ± 0.007 µM | 0.51 ± 0.087 µM |  |  |
| COc1cccc(CCN2CCC(CCc3ccc(F)cc3F)CC2)c1 [Compound 32] | 0.029 ± 0.0055 µM | 0.27 ± 0.015 µM | 0.327 ± 0.0353 µM |  |
| Fc1cc(F)cc(CCC2CCN(CCc3ccccc3Cl)CC2)c1 [Compound 46] | 0.18 ± 0.068 µM | 0.66 ± 0.058 µM |  |  |
| COc1ccc(CCN2CCC(Cc3ccccc3)CC2)cc1OC [Compound 7] | 0.24 ± 0.034 µM | 2.99 ± 0.17 µM |  |  |
| COc1ccc(CCC2CCN(CCc3ccccc3)CC2)c(F)c1 [Compound 36] | 0.12 ± 0.0085 µM | 0.29 ± 0.064 µM |  |  |
| COc1ccc(CCN2CCC(Cc3ccccc3)CC2)cc1 [Compound 8] | 0.18 ± 0.011 µM | 1.94 ± 0.43 µM |  |  |
| COc1ccc(CCN2CCN(CCc3ccc(OC)cc3)CC2)cc1 [Compound 57] | 0.41 ± 0.005 µM | 6.63 ± 0.84 µM |  |  |
| COc1cccc(CCC2CCN(CCc3cccc(OC)c3)CC2)c1 [Compound 16] | 0.085 ± 0.01 µM | 0.23 ± 0.019 µM | 0.564 ± 0.131 µM |  |
| COc1ccc(CCN2CCCN(CCc3ccc(OC)cc3)CC2)cc1 [Compound 68] | 0.25 ± 0.015 µM | 2.88 ± 0.25 µM |  |  |
| COc1ccccc1CCN1CCC(CCc2ccccc2)CC1 [Compound 1, 1-(2-methoxyphenethyl)-4-phenethylpiperidine] | 0.03 ± 0.002 µM | 0.255 ± 0.026 µM | 0.534 ± 0.142 µM |  |
| COc1cccc(CCC2CCN(CCc3ccccc3)CC2)c1 [Compound 14] | 0.056 ± 0.0086 µM | 0.32 ± 0.015 µM | 0.631 ± 0.0888 µM |  |
| COc1ccc(CCN2CCC(CCc3ccc(OC)cc3F)CC2)cc1 [Compound 39] | 0.044 ± 0.0033 µM | 1.61 ± 0.078 µM | 0.299 ± 0.0459 µM |  |
| COc1cccc(CCC2CCN(CCc3ccccc3Cl)CC2)c1 [Compound 18] | 0.42 ± 0.049 µM | 0.46 ± 0.098 µM |  |  |
| Clc1ccccc1CCN1CCCN(CCc2ccccc2Cl)CC1 [Compound 69] | 0.17 ± 0.025 µM | 0.93 ± 0.021 µM |  |  |
| Fc1ccc(CCC2CCN(CCc3ccccc3)CC2)c(F)c1 [Compound 30] | 0.053 ± 0.0055 µM | 0.53 ± 0.11 µM | 0.552 ± 0.0991 µM |  |
| COc1ccccc1CCN1CCCN(CCc2ccccc2OC)CC1 [Compound 66] | 0.19 ± 0.026 µM | 2.02 ± 0.11 µM |  |  |
| COc1ccccc1CCN1CCC(CCc2cc(F)cc(F)c2)CC1 [Compound 43] | 0.034 ± 0.0039 µM | 0.41 ± 0.038 µM | 0.427 ± 0.134 µM |  |
| COc1ccc(CCN2CCC(CCc3ccccc3)CC2)cc1OC [Compound 3] | 0.056 ± 0.009 µM | 2.8 ± 0.11 µM | 0.402 ± 0.0727 µM |  |
| COc1ccc(CN2CCC(CCc3ccccc3)CC2)cc1 [Compound 51] | 0.25 ± 0.027 µM | 6.23 ± 0.56 µM |  |  |
| COc1ccccc1CCN1CCC(Cc2ccccc2)CC1 [Compound 5] | 0.13 ± 0.015 µM | 2.76 ± 0.31 µM |  |  |
| Fc1cc(F)cc(CCC2CCN(CCc3ccccc3)CC2)c1 [Compound 42] | 0.051 ± 0.0035 µM | 1.1 ± 0.087 µM | 0.258 µM |  |
| COc1ccc(CCC2CCN(CCc3cccc(OC)c3)CC2)cc1 [Compound 22] | 0.075 ± 0.004 µM | 0.23 ± 0.047 µM | 0.479 ± 0.228 µM |  |
| COc1ccc(CCC2CCN(CCc3ccccc3Cl)CC2)c(F)c1 [Compound 40] | 0.067 ± 0.021 µM | 0.23 ± 0.015 µM | 1.41 ± 0.166 µM |  |
| Fc1ccc(CN2CCC(CCc3ccccc3)CC2)cc1 [Compound 53] | 0.21 ± 0.012 µM | 10.1 ± 0.58 µM |  |  |
| COc1cccc(CCN2CCC(CCc3ccccc3OC)CC2)c1 [Compound 26, 1-(3-methoxyphenethyl)-4-(2-methoxyphenethyl)piperidine] | 0.013 ± 0.0015 µM | 0.15 to 0.19 µM and 0.15 µM | 0.607 ± 0.0255 µM | 0.009 to 0.02 µM |
